What was measured:
[1] = biological target: Hen1 in the Pnkp1–Rnl–Hen1 heterohexamer (CgiHen1) (Capnocytophaga gingivalis, UniProt Z9ZGS5E134); assay: X-ray crystal structure, […] Å, co-purified ligand; assay type: binding; settings: methyltransferase active site of Hen1; retained from E. coli expression, not added; weak density, low occupancy
[2] = biological target: Capnocytophaga gingivalis Pnkp1 (Capnocytophaga gingivalis); assay: SEC; purified proteins analysed singly, or two proteins combined in equimolar and incubated at 4 °C for an hour before size-exclusion chromatography

| Compound | X-ray crystal structure, 3.4 Å, co-purified ligand [1] | stoichiometry N [2] |
| --- | --- | --- |
| Nc1ncnc2c1ncn2[C@@H]1O[C@H](CSCC[C@H](N)C(=O)O)[C@@H](O)[C@H]1O [SAH] | SAH was modelled in the methyltransferase active site of Hen1-b |  |
| Capnocytophaga gingivalis Pnkp1 (enzyme) |  | 2 |

Reference: PMC4411300, “Reconstitution and structure of a bacterial Pnkp1–Rnl–Hen1 RNA repair complex” (Nature Communications, 2015)
